Source: publication PMC9501899 (Journal of the American Chemical Society, 2022)

What was measured:
VHL-NanoLuc = biological target: T1, VHL-NanoLuc (Homo sapiens, UniProt P40337); test: NanoBRET VHL target engagement assay in HEK293 cells; assay type: binding
T1 construct: host or cells: HEK293
Method: Figure 9 Binding affinities to VHL and LRRK2. (A) Binding affinity of the tested compounds to VHL using the FP assay. […] NanoBRET target engagement assays of tested compounds to VHL (B) and LRRK2 (C) in permeabilized and live-cell modes. The indicated compounds were titrated into HEK293 cells transfected with VHL-NanoLuc (B) or LRRK2-NanoLuc fusion (C) in the presence of VHL tracer (B) or LRRK2 tracer (C). 0.25 and 0.5 μM VHL tracers were used for the permeabilized and live mode VHL engagement assays separately. 0.125 and 0.5 μM of LRRK2 tracer were used for the permeabilized and live mode LRRK2 engagement assays separately. […]
For VHL and LRRK2 target engagement experiments in live and permeabilized cells, the HEK293 cells were transfected with the VHL-NanoLuc fusion vector (Promega, N275A) or LRRK2-NanoLuc fusion vector (Promega, NV3401) following Promega’s protocol and seeded into a white 384-well plate (Corning3570) at a density of 6000 cells/well. […] The filtered luminescence was measured within 10 min following the addition of the substrate on a GloMax Discover microplate reader (Promega) or a PHERAstar (BMG LABTECH) plate reader equipped with a 450 nm bandpass filter (donor) and a 600 nm long-pass filter (acceptor). […]

mito-QC MEFs = test: Mitophagy in mito-QC MEFs; assay type: cell-based, mouse; settings: 24 h treatment
Excerpt: Mitochondrial dysfunction is one of the pathophysiological hallmarks of PD[73] and can be rescued by mitophagy, a quality control mechanism whereby damaged or unnecessary mitochondria are delivered to lysosomes for degradation through membrane trafficking.[8] It has been shown that increasing mitophagy with inducer agents has the potential as a PD therapy.[74] Previous studies have shown that the LRRK2 kinase activity impairs basal mitophagy and that LRRK2 knockout or pharmacological inhibition of LRRK2 with kinase inhibitors was able to rescue the mitophagy level.[8]
Data are represented as mean ± SEM from three to five independent experiments.
Immortalized mito-QC MEFs[8],[93] were maintained in DMEM (Gibco, 11960–044) supplemented with 10% FBS, 2 mM L-glutamine (Gibco, 2503-081), 1% Na-pyruvate (Gibco, 11360-070), 1% nonessential amino acids (Gibco, 11140–035), and 1% antibiotics (penicillin/streptomycin, 100 U/mL penicillin and 100 μg/mL streptomycin; Gibco) at 37 °C under a humidified 5% CO2 atmosphere. […] Quantification of red-only dots was semiautomatized using the mito-QC counter plugin on FIJI, as previously described,[8],[94] using the following parameters: radius for smoothing images = 2, ratio threshold = 1.5, and red channel threshold = mean + 1 SD. […]

R1441C LRRK2 = biological target: T2, R1441C LRRK2 (Mus musculus, UniProt Q5S006, R1441C); test: LRRK2 degradation in R1441C LRRK2 MEFs; assay type: cell-based; settings: 4 h
T2 construct: endogenous in cells; host or cells: R1441C LRRK2 MEFs
T2 sequence (Q5S006 whole entry R1441C): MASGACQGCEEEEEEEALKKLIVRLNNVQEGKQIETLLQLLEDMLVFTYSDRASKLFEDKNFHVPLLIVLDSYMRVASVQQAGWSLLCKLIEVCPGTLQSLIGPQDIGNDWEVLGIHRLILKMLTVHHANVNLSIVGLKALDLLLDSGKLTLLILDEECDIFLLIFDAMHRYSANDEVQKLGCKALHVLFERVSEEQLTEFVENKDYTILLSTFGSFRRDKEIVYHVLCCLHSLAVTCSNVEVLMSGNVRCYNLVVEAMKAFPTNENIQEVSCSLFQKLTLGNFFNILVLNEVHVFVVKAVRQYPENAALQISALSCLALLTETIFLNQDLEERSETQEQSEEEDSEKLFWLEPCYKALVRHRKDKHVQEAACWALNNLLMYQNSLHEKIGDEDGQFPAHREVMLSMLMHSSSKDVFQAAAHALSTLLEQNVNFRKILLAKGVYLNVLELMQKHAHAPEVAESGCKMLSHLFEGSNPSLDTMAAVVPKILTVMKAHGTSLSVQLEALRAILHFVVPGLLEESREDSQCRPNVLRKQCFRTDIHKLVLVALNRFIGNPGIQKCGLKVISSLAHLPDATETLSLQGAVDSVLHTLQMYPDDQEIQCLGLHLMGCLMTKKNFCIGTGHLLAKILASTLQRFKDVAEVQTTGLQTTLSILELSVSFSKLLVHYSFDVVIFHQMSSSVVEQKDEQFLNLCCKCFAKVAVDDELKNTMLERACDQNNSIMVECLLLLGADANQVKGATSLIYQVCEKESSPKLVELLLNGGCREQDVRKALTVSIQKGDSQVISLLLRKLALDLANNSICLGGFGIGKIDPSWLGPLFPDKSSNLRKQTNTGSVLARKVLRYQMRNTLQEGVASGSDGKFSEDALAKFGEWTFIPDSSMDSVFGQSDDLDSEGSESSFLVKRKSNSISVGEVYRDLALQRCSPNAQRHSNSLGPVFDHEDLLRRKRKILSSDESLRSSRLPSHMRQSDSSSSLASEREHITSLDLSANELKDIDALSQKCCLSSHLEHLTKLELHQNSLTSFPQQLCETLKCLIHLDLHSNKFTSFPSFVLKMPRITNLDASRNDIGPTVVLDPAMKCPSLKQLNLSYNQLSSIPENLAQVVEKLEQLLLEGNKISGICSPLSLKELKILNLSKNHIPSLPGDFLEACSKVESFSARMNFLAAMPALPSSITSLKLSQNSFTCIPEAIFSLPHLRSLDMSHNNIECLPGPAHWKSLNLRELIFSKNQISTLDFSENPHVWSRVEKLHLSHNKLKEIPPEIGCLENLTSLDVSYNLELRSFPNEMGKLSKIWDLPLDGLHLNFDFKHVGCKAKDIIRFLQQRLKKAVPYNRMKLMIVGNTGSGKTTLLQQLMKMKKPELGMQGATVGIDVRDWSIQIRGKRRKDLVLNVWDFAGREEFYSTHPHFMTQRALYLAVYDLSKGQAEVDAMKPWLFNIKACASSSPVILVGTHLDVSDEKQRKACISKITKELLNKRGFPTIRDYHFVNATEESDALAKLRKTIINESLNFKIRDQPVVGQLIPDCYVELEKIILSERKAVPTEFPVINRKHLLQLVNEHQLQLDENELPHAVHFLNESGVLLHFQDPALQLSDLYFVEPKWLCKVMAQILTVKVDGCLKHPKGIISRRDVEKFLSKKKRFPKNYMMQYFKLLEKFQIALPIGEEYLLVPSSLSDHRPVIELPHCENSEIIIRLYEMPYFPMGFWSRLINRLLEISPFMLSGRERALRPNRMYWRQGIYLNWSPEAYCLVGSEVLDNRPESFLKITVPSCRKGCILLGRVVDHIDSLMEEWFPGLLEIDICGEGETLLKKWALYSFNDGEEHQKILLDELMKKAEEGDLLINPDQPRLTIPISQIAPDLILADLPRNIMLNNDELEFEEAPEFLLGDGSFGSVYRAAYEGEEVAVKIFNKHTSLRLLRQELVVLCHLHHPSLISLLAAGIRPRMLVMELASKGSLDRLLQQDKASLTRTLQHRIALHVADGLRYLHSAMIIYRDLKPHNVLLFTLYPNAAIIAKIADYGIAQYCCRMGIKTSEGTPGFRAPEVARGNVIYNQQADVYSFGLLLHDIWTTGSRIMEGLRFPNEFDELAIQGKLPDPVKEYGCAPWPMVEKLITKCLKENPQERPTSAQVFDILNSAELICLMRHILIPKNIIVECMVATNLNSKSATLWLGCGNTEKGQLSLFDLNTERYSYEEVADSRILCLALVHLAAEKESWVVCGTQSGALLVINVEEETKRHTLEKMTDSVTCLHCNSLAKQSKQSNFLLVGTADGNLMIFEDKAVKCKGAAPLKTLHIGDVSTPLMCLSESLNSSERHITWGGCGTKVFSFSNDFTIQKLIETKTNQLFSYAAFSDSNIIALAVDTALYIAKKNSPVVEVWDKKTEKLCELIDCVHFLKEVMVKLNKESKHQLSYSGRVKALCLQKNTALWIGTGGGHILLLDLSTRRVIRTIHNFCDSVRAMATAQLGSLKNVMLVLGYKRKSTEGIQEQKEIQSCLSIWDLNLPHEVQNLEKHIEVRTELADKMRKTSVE

T1 sequence (P40337 whole entry): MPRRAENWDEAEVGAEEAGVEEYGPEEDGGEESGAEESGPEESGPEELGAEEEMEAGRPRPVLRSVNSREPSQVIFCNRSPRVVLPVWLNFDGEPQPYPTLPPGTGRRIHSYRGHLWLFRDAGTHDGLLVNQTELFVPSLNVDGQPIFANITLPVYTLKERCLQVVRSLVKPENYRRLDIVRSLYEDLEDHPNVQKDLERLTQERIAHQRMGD

SMILES | VHL IC50 Permeabilized/IC50 Live (VHL-NanoLuc; ratio used to compare permeabilities) | mitophagy level (in words) (mito-QC MEFs) | IC50 (VHL-NanoLuc; permeabilized HEK293 cells) | DC50s (LRRK2) (R1441C LRRK2) | Dmax (LRRK2) (R1441C LRRK2)
CNc1nc(Nc2ccc(C(=O)N3CCN(CCOCCOCCSC(C)(C)[C@H](NC(=O)C4(F)CC4)C(=O)N4C[C@H](O)C[C@H]4C(=O)NCc4ccc(-c5scnc5C)cc4)CC3)cc2OC)ncc1Cl [SD75] | 0.76 | – | – | – | –
CNc1nc(Nc2ccc(C(=O)N3CCN(C[C@H]4CC[C@H](CSC(C)(C)[C@H](NC(=O)C5(F)CC5)C(=O)N5C[C@H](O)CC5C(=O)NCc5ccc(-c6scnc6C)cc5)CC4)CC3)cc2OC)ncc1Cl (stereo partly drawn) [XL01126, (2S,4R)-1-((R)-3-((((1R,4R)-4-((4-(4-((5-Chloro-4-(methylamino)pyrimidin-2-yl)amino)-3-methoxybenzoyl)piperazin-1-yl)methyl)cyclohexyl)methyl)thio)-2-(1-fluorocyclopropane-1-carboxamido)-3-methylbutanoyl)-4-hydroxy-N-(4-(4-methylthiazol-5-yl)benzyl)pyrrolidine-2-carboxamide] | – | induced the mitophagy level dose-dependently | > 10 µM | 15 nM (4 h) | –
CNc1nc(Nc2ccc(C(=O)N3CCN(C[C@H]4CC[C@H](CSC(C)(C)[C@H](NC(=O)C5(F)CC5)C(=O)N5C[C@@H](O)C[C@H]5C(=O)NCc5ccc(-c6scnc6C)cc5)CC4)CC3)cc2OC)ncc1Cl [cis-XL01126, (2S,4S)-1-((R)-3-((((1R,4R)-4-((4-(4-((5-Chloro-4-(methylamino)pyrimidin-2-yl)amino)-3-methoxybenzoyl)piperazin-1-yl)methyl)cyclohexyl)methyl)thio)-2-(1-fluorocyclopropane-1-carboxamido)-3-methylbutanoyl)-4-hydroxy-N-(4-(4-methylthiazol-5-yl)benzyl)pyrrolidine-2-carboxamide] | – | induced the mitophagy level dose-dependently | – | NDO | NDO
